The target of the assay is T1, DPP-1 (Cathepsin C) (Homo sapiens, UniProt P53634).
T1 construct: made in house
The assay can be described thus: DPP-1 Inhibition Assay (in vitro), fluorogenic substrate GR-AMC. Format: biochemical. To be noted: 10 uM GR-AMC, pH 7.0, room temperature, average value where tested multiple times. Here is the method:
Test compounds were assessed for DPP-1 (Cathepsin C) inhibitory activity using a fluorogenic substrate, GR-AMC (Glycine-Arginine-amino-4-methylcoumarin, Bachem, I-1215). The amount of amino-methylcoumarin released is proportional to the DPP-1 activity, and the reaction is monitored kinetically with a Molecular Devices plate reader using black 96-well plates.
All compounds were tested under room temperature conditions. The assay buffer consisted of 50 mM HEPES, pH 7.0, 100 mM NaCl, 2 mM glutathione (GSH), and 0.002% TWEEN 20. GSH and TWEEN 20 were added to the buffer fresh daily. Just prior to use, an in-house preparation of recombinant human DPP-1 (240 µM stock, MW 49.6 kD) was diluted 600-fold in assay buffer containing fresh 2 mM dithiothreitol (DTT) to activate the enzyme, then diluted into assay buffer (without DTT) 133-fold for a DPP-1 working solution of 3 nM. Test compounds were diluted in DMSO for 20x their final assay concentrations.
Additions to a 96-well black Costar 3915 plates were as follows: 90 µL of 11 µM GR-AMC, 5 µL test compound (followed by mixing), and 5 µL 3 nM DPP-1 to start the reaction. Fluorescent reactions were monitored kinetically at 360 nm excitation, 440 nm emission on a Molecular Devices Spectramax XPS reader. The Softmax Pro software of the reader determined the initial velocity of the selected data (the first 3-5 minutes of the reaction), and the best linear regression fit of the initial kinetic data. Final assay conditions were 0.15 nM DPP-1, 10 uM GR-AMC, 50 mM HEPES, pH 7.0, 100 mM NaCl, 2 mM GSH, 0.002% TWEEN 20, 1 uM DTT, 5.0 % DMSO. Initial velocity rates were plotted vs. test compound concentration by use of a four-parameter logistics equation (nonlinear regression, sigmoidal dose-response (variable slope), with fixed Hill (1.0) using GraphPad Prism® software for determination of DPP-1 IC50. Within-run assay coefficient of variation (CV) was generally <10%; between-run CV <20%.
Representative compounds of the present invention were tested according to the procedure as described above, with results as listed in Table 5, below. Table 5: DPP-1 Inhibition

Where [1] appears, read: recombinant human DPP-1 0.15 nM, read-out: IC50.
Where [2] appears, read: IC50, recombinant human DPP-1 0.15 nM.

The structures appear in SMILES notation. Counter-ions that a name gives are not always drawn. Like-named read-outs stand apart in the source and are kept apart here.

T1 sequence (P53634 25-463): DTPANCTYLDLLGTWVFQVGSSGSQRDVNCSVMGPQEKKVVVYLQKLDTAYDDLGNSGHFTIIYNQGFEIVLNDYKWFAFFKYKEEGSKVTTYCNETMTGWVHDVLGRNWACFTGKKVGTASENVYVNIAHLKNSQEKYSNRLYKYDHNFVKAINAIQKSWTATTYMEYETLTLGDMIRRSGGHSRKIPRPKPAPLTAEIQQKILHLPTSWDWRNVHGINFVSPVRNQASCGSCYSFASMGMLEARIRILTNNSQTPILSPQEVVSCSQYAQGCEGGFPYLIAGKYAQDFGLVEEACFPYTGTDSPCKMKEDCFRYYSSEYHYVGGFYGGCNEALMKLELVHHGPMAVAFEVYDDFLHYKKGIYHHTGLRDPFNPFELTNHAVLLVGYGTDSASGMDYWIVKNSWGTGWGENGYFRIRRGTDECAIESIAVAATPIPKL

Take `N[C@@H](Cc1cccs1)C(=O)N1CCC(Cc2ccc(-c3ccccc3)cc2)(C(=O)NCC2CCOCC2)CC1` [Compound 6, (S)-1-(2-amino-3-(thiophen-2-yl)propanoyl)-4-(biphenyl-4-ylmethyl)-N-((tetrahydro-2H-pyran-4-yl)methyl)piperidine-4-carboxamide hydrochloride]: the IC50 under setting [1] amounted to 74 nM. Regarding `N[C@@H](Cc1cccs1)C(=O)N1CCC(Cc2ccc(-c3ccccc3)cc2)(C(=O)N2CCC3CCCCC3C2)CC1` (stereo partly shown) [Compound 7], the IC50 under setting [2] came to 1300 nM.

Turning to `N#Cc1ccc(CC2(C(=O)OCC3CCCCC3)CCN(C(=O)[C@@H](N)Cc3cccs3)CC2)cc1` [Compound 15, (S)-cyclohexylmethyl 1-(2-amino-3-(thiophen-2-yl)propanoyl)-4-(4-cyanobenzyl)piperidine-4-carboxylate hydrochloride], the IC50 under setting [1] is 83 nM.

On to `CC[C@H](N)C(=O)N1CCC(Cc2ccc(C(F)(F)F)cc2)(C(=O)OCC2CCCCC2)CC1` [Compound 18], for which the IC50 under setting [2] turned out to be 5400 nM. Same read-out and setting: the value for `CC[C@H](N)C(=O)N1CCC(Cc2cccc(-c3ccccc3)c2)(C(=O)OCC2CCCCC2)CC1` [Compound 29] was 9500 nM. Still for that read-out and setting: then `N[C@@H](Cc1c[nH]cn1)C(=O)N1CCC(Cc2cccc(-c3ccccc3)c2)(C(=O)OCC2CCCCC2)CC1` [Compound 31], with 5800 nM. For the molecule `C#CC[C@H](N)C(=O)N1CCC(Cc2ccc(-c3ccccc3)cc2)(C(=O)NC2CCCCC2)CC1` [Compound 35], under setting [1], the IC50 is over 20000 nM. `CSC[C@H](N)C(=O)N1CCC(Cc2ccc(-c3ccccc3)cc2)(C(=O)NC2CCCCC2)CC1` [Compound 38]: the IC50 under setting [2] is 750 nM. For the molecule `COc1cccc(-c2ccc(CC3(C(=O)NC4CCCCC4)CCN(C(=O)[C@@H](N)Cc4cccs4)CC3)cc2)c1` [Compound 47, (S)-1-(2-amino-3-(thiophen-2-yl)propanoyl)-N-cyclohexyl-4-((3'-methoxybiphenyl-4-yl)methyl)piperidine-4-carboxamide hydrochloride], the IC50 under setting [1] stood at 34 nM. For the molecule `CN(C)C(=O)c1ccc(CC2(C(=O)NC3CCCCC3)CCN(C(=O)[C@@H](N)Cc3cccs3)CC2)cc1` [Compound 59, (S)-1-(2-amino-3-(thiophen-2-yl)propanoyl)-N-cyclohexyl-4-(4-(dimethylcarbamoyl)benzyl)piperidine-4-carboxamide hydrochloride], the IC50 under setting [1] stood at 86 nM. For the molecule `CS(=O)(=O)CC[C@H](N)C(=O)N1CCC(Cc2ccc(I)cc2)(C(=O)NC2CCCCC2)CC1` [Compound 74], the half-inhibitory concentration (IC50) under setting [1] was over 20000 nM. On the same count and under the same terms, the value for `N[C@@H](Cc1cccs1)C(=O)N1CCC(Cc2ccccc2C(=O)O)(C(=O)NC2CCCCC2)CC1` [Compound 80, 2-[1-(2-(S)-Amino-3-thiophen-2-yl-propionyl)-4-cyclohexylcarbamoyl-piperidin-4-ylmethyl]-benzoic acid hydrochloride] was 220 nM. Still for that read-out and setting: the value for `N[C@@H](Cc1cccs1)C(=O)N1CCC(Cc2ccc(NS(=O)(=O)c3ccccn3)cc2)(C(=O)NC2CCCCC2)CC1` [Compound 87, (S)-1-(2-amino-3-(thiophen-2-yl)propanoyl)-N-cyclohexyl-4-(4-(pyridine-2-sulfonamido)benzyl)piperidine-4-carboxamide hydrochloride] was 20 nM; that for `CC(=O)Nc1ccc(CC2(C(=O)NC3CCCCC3)CCN(C(=O)[C@@H](N)Cc3cccs3)CC2)cc1` [Compound 90, (S)-4-(4-acetamidobenzyl)-1-(2-amino-3-(thiophen-2-yl)propanoyl)-N-cyclohexylpiperidine-4-carboxamide hydrochloride] was 49 nM. On the same count and under the same terms, then `CC[S+]([O-])CCC(N)C(=O)N1CCC(Cc2ccc(-c3ccccc3)cc2)(C(=O)NCC2CCCCC2)CC1` (stereo not shown) [Compound 107], with over 20000 nM.

As to `COC(=O)C1CCC(NC(=O)C2(c3ccccc3)CCN(C(=O)C(N)Cc3cccs3)CC2)CC1` (stereo not shown) [Compound 109], under setting [1], the IC50 was determined as 25 nM. Still for that read-out and setting: the value for `N[C@@H](Cc1cccs1)C(=O)N1CCC(C(=O)N[C@H]2CC[C@H](C(=O)O)CC2)(c2ccccc2)CC1` [Compound 111, 4-{[1-(2-(S)-Amino-3-thiophen-2-yl-propionyl)-4-phenyl-piperidine-4-carbonyl]-amino}-trans-cyclohexanecarboxylic acid] was 89 nM.

`COC(=O)C1CCC(NC(=O)C2(c3ccccc3)CCN(C(=O)C(N)Cc3cccs3)CC2)CC1` (stereo not shown) [Compound 113]: the half-inhibitory concentration (IC50) under setting [1] amounted to 70 nM.

With `NC(=O)c1ccc(CC2(C(=O)NCC3CCCCC3)CCN(C(=O)[C@@H](N)Cc3cccs3)CC2)cc1` [Compound 116, (S)-1-(2-amino-3-(thiophen-2-yl)propanoyl)-4-(4-carbamoylbenzyl)-N-(cyclohexylmethyl)piperidine-4-carboxamide hydrochloride], the IC50 under setting [1] came to 50 nM. Same read-out and setting: the value for `NC(=O)c1ccc(CC2(C(=O)NC3CCC(O)CC3)CCN(C(=O)C(N)Cc3cccs3)CC2)cc1` (stereo not shown) [Compound 117] was 330 nM. `N#CC1(c2cc(C(F)(F)F)cc(C(F)(F)F)c2)CCN(C(=O)C(N)Cc2cccs2)CC1` (stereo not shown) [Compound 118]: under setting [2], the IC50 came to 3400 nM.

For the molecule `NC(C(=O)N1CCC(Cc2ccc(-c3ccccc3)cc2)(C(=O)NCC2CCCCC2)CC1)C(O)c1cccs1` (stereo not shown) [Compound 123], the IC50 under setting [1] was 820 nM. On the same count and under the same terms, then `N#Cc1ccc(CC2(C(=O)NC3CCC(O)CC3)CCN(C(=O)C(N)Cc3cccs3)CC2)cc1` (stereo not shown) [Compound 125], with 160 nM; and `N[C@@H](Cc1cccs1)C(=O)N1CCC(Cc2ccc(-c3nnn[nH]3)cc2)(C(=O)NC2CCCCC2)CC1` [Compound 126, (S)-4-(4-(1H-tetrazol-5-yl)benzyl)-1-(2-amino-3-(thiophen-2-yl)propanoyl)-N-cyclohexylpiperidine-4-carboxamide hydrochloride], with 170 nM.

As for `NC(Cc1cccs1)C(=O)N1CCC(Cc2ccc(-c3nnn[nH]3)cc2)(C(=O)NC2CCC(O)CC2)CC1` (stereo not shown) [Compound 128], the IC50 under setting [1] stood at 690 nM. The same measure, in the same setting: the value for `Cc1ccc(C2(C(=O)NC3CCC(O)CC3)CCN(C(=O)C(N)Cc3cccs3)CC2)cc1` (stereo not shown) [Compound 131] was 140 nM; that for `N[C@@H](Cc1cccs1)C(=O)N1CCC(C(=O)NCC2CCCCC2)(c2cc(C(F)(F)F)cc(C(F)(F)F)c2)CC1` [Compound 133, 1-(2-(S)-Amino-3-thiophen-2-yl-propionyl)-4-(3,5-bis-trifluoromethyl-phenyl)-piperidine-4-carboxylic acid cyclohexylmethylamide hydrochloride] was 67 nM. Turning to `CN1CCC(CNC(=O)C2(c3ccccc3)CCN(C(=O)C(N)Cc3cccs3)CC2)CC1` (stereo not shown) [Compound 152], under setting [1], the half-inhibitory concentration (IC50) came out at 820 nM.

In general, IC50 refers to the concentration that inhibits the measured activity by half.

The values above are taken from patent EP2544684B1, “4,4-DISUBSTITUTED PIPERIDINE DERIVATIVES USEFUL AS INHIBITORS OF DIPEPTIDYL PEPTIDASE-1 (DPP-1)” (Janssen Pharmaceutica NV, priority 2010, dated 2011).
